Values after ≈ are worked out from the molar mass of the structure shown.
Assays:
[1] = system: HCT116; assay: Cytotoxicity screening, SRB assay, HCT116; format: cell-based, human; conditions: for IC50: Homo sapiens, HCT-116, 48 h
Protocol: (§1) In this study, a panel of cell lines was examined for their chemosensitivity. Different concentrations of the synthesised pyridines and pyrimidine derivatives were used in this study (5, 12.5, 25, and 50 µg/mL) for all the examined cell lines. In this study, breast tumour cell line (MCF7), hepatocellular carcinoma cell line (HEPG2), larynx cell line (HEP2), lung cancer cell line (H460), colon cancer cell line (HCT116 and Caco2), hypopharyngeal cell line (FADU), and normal Vero cell line were applied. The full methodology is described in the Supplementary data (SI 1).
(§2) SI 1: Cytotoxicity screening against human cancer cell lines
(§3) In this study, a panel of cell lines was examined for their chemosensitivity. Different concentrations of the synthesized pyridines and pyrimidines derivatives were used in this study (5, 12.5, 25, and 50 µg/ml) for all the examined cell lines. The most sensitive cell line to the treatment regimen was selected and subjected to further investigations to explore the mechanism of this interaction. Human breast tumor cell line (MCF7), human hepatocellular carcinoma cell line (HEPG2), human larynx cell line (HEP2), human lung cancer cell line (H460), human colon cancer cell line (HCT116 and Caco2), human hypopharyngeal cell line (FaDu), and normal cell line Vero were used in this study. It was obtained from the American Type Culture Collection (ATCC, Minnesota, USA). The tumor cell line was maintained at National Cancer Institute (NCI), Cairo, Egypt.
(§4) The antitumor activities of pyridines and pyrimidines derivatives and all tested cell lines were evaluated by sulphorhodamine-B (SRB) assay 1. Briefly, cells were seeded at a density of 3 × 10^3 cells/well in 96-well microtiter plates. They were left to attach for 24 h before incubation with drugs. Next, cells were treated with different concentrations of 5, 12.5, 25, and 50 µg/ml for MCF7, HEPG2, HEP2, HCT116, Caco2, H460, FaDu, and Vero cells. For each concentration, three wells were used and incubation was continued for 48 h. DMSO was used as a control vehicle (1 % v/v). At the end of incubation, cells were fixed with 20 % trichloroacetic acid and stained with 0.4 % SRB dye. The optical density (O.D.) of each well was measured spectrophotometrically at 570 nm using an ELISA microplate reader (TECAN sunrise™, Germany). The mean survival fraction at each drug concentration was calculated as follows: […]
(§5) O.D. of the treated cells/O.D. of the control cells. The IC50 (concentration that produces 50% of cell growth inhibition) value of each drug was calculated using sigmoidal dose-response curve-fitting models (Graph Pad Prizm software, version 5) 1.

[2] = system: T47D; assay: Cytotoxicity screening, SRB assay, T47D; format: cell-based, human; conditions: 48 h; for IC50: Homo sapiens, T47D
[3] = system: H460; assay: Cytotoxicity screening, SRB assay, H460; format: cell-based, human; conditions: for IC50: Homo sapiens, NCI-H460, 48 h
Protocol: as §1, §2, §3, §4, §5

[4] = system: FADU; assay: Cytotoxicity screening, SRB assay, FADU; format: cell-based, human; conditions: 48 h; for IC50: Homo sapiens, FaDu
Protocol: as §1, §2, §3, §4, §5

[5] = system: HEPG2; assay: Cytotoxicity screening, SRB assay, HEPG2; format: cell-based, human; conditions: for IC50: Homo sapiens, HepG2, 48 h
Protocol: as §1, §2, §3, §4, §5

[6] = system: MCF7; assay: Cytotoxicity screening, SRB assay, MCF7; format: cell-based, human; conditions: for IC50: Homo sapiens, MCF7, 48 h
Protocol: as §1, §2, §3, §4, §5

[7] = system: HEP2; assay: Cytotoxicity screening, SRB assay, HEP2; format: cell-based, human; conditions: for IC50: Homo sapiens, HEp-2, 48 h
Protocol: as §1, §2, §3, §4, §5

[8] = system: CaCo2; assay: Cytotoxicity screening, SRB assay, CaCo2; format: cell-based, human; conditions: for IC50: Homo sapiens, Caco-2, 48 h
Protocol: as §1, §2, §3, §4, §5

[9] = system: VERO; assay: Cytotoxicity screening, SRB assay, normal Vero cells; format: cell-based; conditions: 48 h, normal cell line; for IC50: Chlorocebus sabaeus, Vero
Protocol: as §1, §2, §3, §4, §5

[10] = system: PI3Kd; set-up: method as in PMID 29631787; conditions: inhibitory potential against PI3Kd; cited from earlier work
[11] = system: NF-kB; set-up: method as in PMID 25108361; conditions: inhibitory potential against NF-kB; cited from earlier work

Row | Structure (SMILES) | IC50 [1] [µg/mL] | IC50 [2] [µg/mL] | IC50 [3] [µg/mL] | IC50 [4] [µg/mL] | IC50 [5] [µg/mL] | IC50 [6] [µg/mL] | IC50 [7] [µg/mL] | IC50 [8] [µg/mL] | IC50 [9] [µg/mL] | other results
1 | Nc1nn2c(-c3cccs3)cc(-c3ccco3)nc2c1/N=N/c1ccc([N+](=O)[O-])cc1 [Compound 7] | 15 (≈ 34.8 µM) | 44.5 (≈ 103 µM) | 3.7 (≈ 8.58 µM) | 8.3 (≈ 19.2 µM) | 12 (≈ 27.8 µM) | 13.7 (≈ 31.8 µM) | 35.2 (≈ 81.6 µM) | 21.5 (≈ 49.8 µM) | 12 (≈ 27.8 µM) | –
2 | c1coc(-c2cc(-c3cccs3)n3cnnc3n2)c1 [Compound 9] | 24.3 (≈ 90.6 µM) | 11.5 (≈ 42.9 µM) | 43.2 (≈ 161 µM) | 19.6 (≈ 73.1 µM) | 18.5 (≈ 69 µM) | 17.2 (≈ 64.1 µM) | 14.7 (≈ 54.8 µM) | 23.5 (≈ 87.6 µM) | 32.5 (≈ 121 µM) | –
3 | c1coc(-c2cc(-c3cccs3)n3nnnc3n2)c1 [Compound 10] | 33.3 (≈ 124 µM) | 18.2 (≈ 67.6 µM) | 2.9 (≈ 10.8 µM) | 4.5 (≈ 16.7 µM) | 7.3 (≈ 27.1 µM) | 18.7 (≈ 69.4 µM) | 22.8 (≈ 84.7 µM) | – | 28.5 (≈ 106 µM) | –
4 | C1=C(c2ccco2)n2c(nc3ccccc32)SC1c1cccs1 (centres unmarked) [Compound 11] | 42 (≈ 125 µM) | 19.5 (≈ 58 µM) | 4.3 (≈ 12.8 µM) | 18.2 (≈ 54.1 µM) | 18.5 (≈ 55 µM) | 15.9 (≈ 47.3 µM) | 19.5 (≈ 58 µM) | 24.8 (≈ 73.7 µM) | 24 (≈ 71.3 µM) | –
5 | N#Cc1c(-c2cccs2)cc(-c2ccco2)nc1-c1c[nH]c2ccccc12 [Compound 13] | 44.3 (≈ 121 µM) | 21 (≈ 57.2 µM) | – | 15.9 (≈ 43.3 µM) | 8.6 (≈ 23.4 µM) | 7.8 (≈ 21.2 µM) | 4.8 (≈ 13.1 µM) | – | – | –
6 | N#Cc1c(-c2cccs2)cc(-c2ccco2)nc1Cl [Compound 15] | 22 (≈ 76.7 µM) | 49.4 (≈ 172 µM) | 21 (≈ 73.2 µM) | 17.5 (≈ 61 µM) | 12 (≈ 41.8 µM) | 14.7 (≈ 51.3 µM) | 36.8 (≈ 128 µM) | 23.5 (≈ 82 µM) | 21.5 (≈ 75 µM) | –
7 | Clc1nc(-c2ccco2)cc(-c2cccs2)c1-c1nnn[nH]1 [Compound 16] | 27 (≈ 81.9 µM) | 8.9 (≈ 27 µM) | 19.4 (≈ 58.8 µM) | 9 (≈ 27.3 µM) | 9.7 (≈ 29.4 µM) | 21 (≈ 63.7 µM) | 31 (≈ 94 µM) | 18.2 (≈ 55.2 µM) | 4.5 (≈ 13.6 µM) | –
8 | N#Cc1c(-c2cccs2)cc(-c2ccco2)nc1NN [Compound 17] | 19.3 (≈ 68.4 µM) | 4.9 (≈ 17.4 µM) | 12.7 (≈ 45 µM) | 10.5 (≈ 37.2 µM) | 4.9 (≈ 17.4 µM) | 34 (≈ 120 µM) | 24 (≈ 85 µM) | 24 (≈ 85 µM) | 16.5 (≈ 58.4 µM) | –
9 | CCOC(=O)COc1nc(-c2ccco2)cc(-c2cccs2)c1C#N [Compound 18] | 36.7 (≈ 104 µM) | 25.5 (≈ 72 µM) | 25 (≈ 70.5 µM) | 22 (≈ 62.1 µM) | 9 (≈ 25.4 µM) | 21.5 (≈ 60.7 µM) | 23 (≈ 64.9 µM) | 23.5 (≈ 66.3 µM) | 24.5 (≈ 69.1 µM) | –
10 | N#Cc1c(-c2cccs2)cc(-c2ccco2)nc1OCC(=O)NN [Compound 19] | – | 32 (≈ 94 µM) | 41.5 (≈ 122 µM) | 20.5 (≈ 60.2 µM) | 24.2 (≈ 71.1 µM) | 39.5 (≈ 116 µM) | 43.5 (≈ 128 µM) | 10.8 (≈ 31.7 µM) | 36 (≈ 106 µM) | –
11 | N#Cc1c(-c2cccs2)cc(-c2ccco2)nc1OCC(=O)N/N=C/c1ccc([N+](=O)[O-])cc1 [Compound 20] | 24.7 (≈ 52.2 µM) | 49.5 (≈ 105 µM) | 11.3 (≈ 23.9 µM) | 8.5 (≈ 18 µM) | 11.5 (≈ 24.3 µM) | 12.2 (≈ 25.8 µM) | 31 (≈ 65.5 µM) | 41.5 (≈ 87.7 µM) | 10.5 (≈ 22.2 µM) | –
12 | N#Cc1c(-c2cccs2)cc(-c2ccco2)nc1OCC(=O)N/N=C1/C(=O)Nc2ccccc21 [Compound 21] | – | 17 (≈ 36.2 µM) | 23.3 (≈ 49.6 µM) | 10.9 (≈ 23.2 µM) | 5 (≈ 10.7 µM) | 9.5 (≈ 20.2 µM) | 19.8 (≈ 42.2 µM) | 34 (≈ 72.4 µM) | 38.2 (≈ 81.4 µM) | –
13 | COc1ncc(-c2cc(O[C@@H]3CCN(C(=O)C4CCOCC4)C3)c3cnn(C)c3n2)cc1NS(C)(=O)=O [Compound II] | – | – | – | – | – | – | – | – | – | IC50 [10]: 5.3 nM
14 | CC1Cc2cnc3[nH]nc(N)c3c2-c2ccccc21 (centres unmarked) [Compound IV] | – | – | – | – | – | – | – | – | – | IC50 [11]: 4.7 µM
15 | COc1ncc(-c2cc(NC(=O)c3coc(CN4CCN(C(C)C)CC4)n3)c3cnn(C)c3n2)cc1NS(C)(=O)=O [Compound I] | – | – | – | – | – | – | – | – | – | IC50 [10]: 8.4 nM
16 | Cc1cnc2[nH]nc(N)c2c1-c1ccccc1 [Compound VI] | – | – | – | – | – | – | – | – | – | IC50 [11]: 39.8 µM
17 | Nc1n[nH]c2ncc3c(c12)-c1ccccc1CC3 [Compound V] | – | – | – | – | – | – | – | – | – | IC50 [11]: 6.9 µM
18 | COc1cccc2c1C(=O)c1c(O)c3c(c(O)c1C2=O)C[C@@](O)(C(=O)CO)C[C@@H]3O[C@H]1C[C@H](N)[C@H](O)[C@H](C)O1 [DOX, reference compound] | – | – | – | – | – | – | – | – | – | HCT116 IC50 ([1]; 48 h): 5.50 µg/mL; T47D IC50 [2]: 4.00 µg/mL; H460 IC50 ([3]; 48 h): 6.50 µg/mL; FADU IC50 [4]: 7.00 µg/mL; HEPG2 IC50 ([5]; 48 h): 4.58 µg/mL; MCF7 IC50 ([6]; 48 h): 4.50 µg/mL; HEP2 IC50 ([7]; 48 h): 5.60 µg/mL; CaCo2 IC50 ([8]; 48 h): 6.00 µg/mL; VERO IC50 [9]: 23.00 µg/mL

— paper PMC9635468, “Biological evaluation, docking studies, and in silico ADME prediction of some pyrimidine and pyridine derivatives as potential EGFR^WT and EGFR^T790M inhibitors” (Journal of Enzyme Inhibition and Medicinal Chemistry, 2022)
